Test results: ChEMBL document CHEMBL1201862, “PubChem BioAssay data set” (2004)
Activity calls are given as the source filed them.

Legend:
[1] = HEp-2 cell cytotoxicity, dose response, cytotoxicity control for RSV inhibitor project, HTS (AID 2410); assay type: functional; details: human respiratory syncytial virus
Vero = assay: cells; assay type: functional, cell-based; details: Chlorocebus sabaeus
[2] = target: T1, Voltage-gated N-type calcium channel alpha-1B subunit/Amyloid beta A4 precursor protein-binding family A member 1 (Homo sapiens, UniProt Q00975+Q02410); assay type: protein assay
T1 sequence (Q00975 whole entry): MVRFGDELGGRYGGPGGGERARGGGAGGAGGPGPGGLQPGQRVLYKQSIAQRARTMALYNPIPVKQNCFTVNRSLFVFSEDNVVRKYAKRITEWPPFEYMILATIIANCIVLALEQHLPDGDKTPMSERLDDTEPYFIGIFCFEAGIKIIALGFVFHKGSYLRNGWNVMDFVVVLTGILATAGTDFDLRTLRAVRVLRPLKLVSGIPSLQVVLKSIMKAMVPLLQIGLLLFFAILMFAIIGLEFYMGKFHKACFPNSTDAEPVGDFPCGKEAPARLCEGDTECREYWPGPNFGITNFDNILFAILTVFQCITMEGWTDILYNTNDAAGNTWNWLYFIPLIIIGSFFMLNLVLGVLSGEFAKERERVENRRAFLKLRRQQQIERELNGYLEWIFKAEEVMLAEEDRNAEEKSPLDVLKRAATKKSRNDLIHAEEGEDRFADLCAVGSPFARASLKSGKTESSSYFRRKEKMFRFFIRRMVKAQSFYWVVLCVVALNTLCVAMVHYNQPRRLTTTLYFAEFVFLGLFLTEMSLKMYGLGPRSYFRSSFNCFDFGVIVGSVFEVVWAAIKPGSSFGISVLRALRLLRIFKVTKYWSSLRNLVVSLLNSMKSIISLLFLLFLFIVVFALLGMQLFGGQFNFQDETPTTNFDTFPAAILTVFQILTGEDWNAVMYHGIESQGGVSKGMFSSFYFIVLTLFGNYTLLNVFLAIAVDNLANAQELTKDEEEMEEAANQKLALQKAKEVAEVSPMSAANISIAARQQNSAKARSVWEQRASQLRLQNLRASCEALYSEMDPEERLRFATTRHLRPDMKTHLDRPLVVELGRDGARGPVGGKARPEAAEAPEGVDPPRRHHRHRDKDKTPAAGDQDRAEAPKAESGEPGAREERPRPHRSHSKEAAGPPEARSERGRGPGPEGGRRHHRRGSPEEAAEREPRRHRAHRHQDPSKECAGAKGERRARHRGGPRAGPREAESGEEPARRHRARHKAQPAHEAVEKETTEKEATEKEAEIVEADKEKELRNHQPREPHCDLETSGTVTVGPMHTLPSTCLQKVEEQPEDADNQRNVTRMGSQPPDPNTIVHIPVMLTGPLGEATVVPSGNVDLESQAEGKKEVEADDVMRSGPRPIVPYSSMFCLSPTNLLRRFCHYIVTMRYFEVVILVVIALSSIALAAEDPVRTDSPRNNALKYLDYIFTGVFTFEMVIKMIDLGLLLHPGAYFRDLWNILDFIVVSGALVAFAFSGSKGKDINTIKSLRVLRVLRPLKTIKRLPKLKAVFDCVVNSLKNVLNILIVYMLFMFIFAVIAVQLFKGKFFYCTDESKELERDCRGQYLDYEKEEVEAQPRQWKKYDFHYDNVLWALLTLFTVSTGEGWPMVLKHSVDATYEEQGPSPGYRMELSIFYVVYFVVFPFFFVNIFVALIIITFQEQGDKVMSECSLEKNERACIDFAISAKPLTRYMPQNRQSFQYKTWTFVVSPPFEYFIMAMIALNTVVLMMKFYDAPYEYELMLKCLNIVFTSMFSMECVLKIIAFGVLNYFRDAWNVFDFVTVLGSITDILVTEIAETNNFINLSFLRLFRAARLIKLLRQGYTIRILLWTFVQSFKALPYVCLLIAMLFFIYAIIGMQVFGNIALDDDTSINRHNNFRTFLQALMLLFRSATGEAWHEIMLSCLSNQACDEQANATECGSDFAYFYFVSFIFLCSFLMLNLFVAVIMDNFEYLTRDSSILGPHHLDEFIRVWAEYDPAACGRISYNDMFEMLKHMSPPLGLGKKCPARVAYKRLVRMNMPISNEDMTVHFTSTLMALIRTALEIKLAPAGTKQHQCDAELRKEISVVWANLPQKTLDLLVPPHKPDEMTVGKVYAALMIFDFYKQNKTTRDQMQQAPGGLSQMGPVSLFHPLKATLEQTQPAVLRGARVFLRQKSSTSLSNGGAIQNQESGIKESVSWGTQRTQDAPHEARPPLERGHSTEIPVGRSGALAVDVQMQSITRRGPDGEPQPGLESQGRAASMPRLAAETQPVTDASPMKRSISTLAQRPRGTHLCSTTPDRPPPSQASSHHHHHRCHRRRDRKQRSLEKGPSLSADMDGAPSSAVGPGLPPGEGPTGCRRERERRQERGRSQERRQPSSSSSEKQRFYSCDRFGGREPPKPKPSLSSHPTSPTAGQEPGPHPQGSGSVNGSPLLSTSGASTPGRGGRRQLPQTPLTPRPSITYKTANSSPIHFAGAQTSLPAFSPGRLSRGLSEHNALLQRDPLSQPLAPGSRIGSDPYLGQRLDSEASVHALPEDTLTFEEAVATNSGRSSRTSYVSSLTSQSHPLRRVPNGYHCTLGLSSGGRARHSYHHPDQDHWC
T1 sequence (Q02410 whole entry): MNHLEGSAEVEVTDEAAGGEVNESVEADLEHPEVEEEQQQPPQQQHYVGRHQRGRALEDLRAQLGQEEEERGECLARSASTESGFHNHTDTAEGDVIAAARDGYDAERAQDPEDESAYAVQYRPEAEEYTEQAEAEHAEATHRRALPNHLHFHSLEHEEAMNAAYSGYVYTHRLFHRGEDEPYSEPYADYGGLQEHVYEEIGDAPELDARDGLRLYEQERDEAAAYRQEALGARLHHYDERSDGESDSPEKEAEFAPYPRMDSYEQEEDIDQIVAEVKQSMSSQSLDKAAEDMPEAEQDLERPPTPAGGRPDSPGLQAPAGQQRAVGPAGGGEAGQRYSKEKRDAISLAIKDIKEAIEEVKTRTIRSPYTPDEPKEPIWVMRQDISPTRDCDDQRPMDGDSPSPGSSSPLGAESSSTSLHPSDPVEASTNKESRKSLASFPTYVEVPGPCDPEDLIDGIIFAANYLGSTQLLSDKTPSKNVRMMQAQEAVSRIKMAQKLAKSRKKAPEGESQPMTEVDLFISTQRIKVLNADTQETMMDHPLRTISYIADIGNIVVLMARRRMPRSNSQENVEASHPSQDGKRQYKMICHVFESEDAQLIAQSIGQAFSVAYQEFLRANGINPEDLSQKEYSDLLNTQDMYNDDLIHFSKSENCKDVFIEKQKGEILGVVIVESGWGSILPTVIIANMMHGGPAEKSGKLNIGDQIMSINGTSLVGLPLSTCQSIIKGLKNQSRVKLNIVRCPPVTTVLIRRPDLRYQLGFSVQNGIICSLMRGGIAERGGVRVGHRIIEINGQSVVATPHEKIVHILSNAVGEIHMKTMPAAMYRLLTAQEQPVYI

Estrogen receptor = target: T2, Estrogen receptor (Homo sapiens, UniProt P03372);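 further: potency for inhibiting coactivator peptide recruitment to the receptor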
T2 sequence (P03372 whole entry): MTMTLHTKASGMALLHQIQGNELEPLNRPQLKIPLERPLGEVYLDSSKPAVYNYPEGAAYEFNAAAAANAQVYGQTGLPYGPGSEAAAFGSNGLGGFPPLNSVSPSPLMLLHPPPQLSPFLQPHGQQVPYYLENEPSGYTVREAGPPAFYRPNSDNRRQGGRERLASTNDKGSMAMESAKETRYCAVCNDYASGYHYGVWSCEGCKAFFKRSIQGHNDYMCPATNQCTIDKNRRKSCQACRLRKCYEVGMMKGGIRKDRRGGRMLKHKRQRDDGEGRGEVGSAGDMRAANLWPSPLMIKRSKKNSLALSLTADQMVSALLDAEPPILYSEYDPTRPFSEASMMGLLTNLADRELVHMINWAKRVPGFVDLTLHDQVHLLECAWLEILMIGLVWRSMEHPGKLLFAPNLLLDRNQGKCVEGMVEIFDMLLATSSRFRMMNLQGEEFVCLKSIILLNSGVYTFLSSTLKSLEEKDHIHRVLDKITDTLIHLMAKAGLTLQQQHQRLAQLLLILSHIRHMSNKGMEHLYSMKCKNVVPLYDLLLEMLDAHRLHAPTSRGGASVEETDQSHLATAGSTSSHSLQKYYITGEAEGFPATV

Genome polyprotein = target: T3, Genome polyprotein (Hepatitis C virus, UniProt Q2Q167); assay: HCV core protein dimerization inhibitors, dose response, biochemical, TR-FRET (AID 2159); set-up: species or system Hepacivirus hominis;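 further: blocks dimerization of HCV core protein measured by TR-FRET between tagged core106 pairs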
T3 sequence (Q2Q167 whole entry): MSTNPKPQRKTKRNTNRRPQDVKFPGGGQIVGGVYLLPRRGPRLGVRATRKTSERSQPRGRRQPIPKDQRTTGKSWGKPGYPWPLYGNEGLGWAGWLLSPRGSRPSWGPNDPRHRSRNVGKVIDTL

Large T antigen = Large T antigen (Simian virus 40, UniProt P03070); assay type: functional, Betapolyomavirus macacae;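 further: Confirmatory-stage PubChem screen for compounds that inhibit SV40 T antigen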
[3] = target: T1, Voltage-gated N-type calcium channel alpha-1B subunit/Amyloid beta A4 precursor protein-binding family A member 1; assay type: protein assay; remark: listed apart in the source
[4] = target: DNA dC->dU-editing enzyme APOBEC-3A (Homo sapiens, UniProt P31941); assay: Dose Response confirmation of small molecule APOBEC3A DNA Deaminase Inhibitors via a fluorescence-based single-stranded DNA deaminase assay. [Related pubchem assays (depositor defined):AID493011, AID493024]; assay type: functional
Chain of DNA dC->dU-editing enzyme APOBEC-3A (P31941 whole entry): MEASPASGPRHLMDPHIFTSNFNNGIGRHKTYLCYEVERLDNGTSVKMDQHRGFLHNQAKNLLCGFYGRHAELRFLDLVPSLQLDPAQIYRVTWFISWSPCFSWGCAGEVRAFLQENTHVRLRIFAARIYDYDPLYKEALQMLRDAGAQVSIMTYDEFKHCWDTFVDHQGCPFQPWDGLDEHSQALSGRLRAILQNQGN

[5] = target: DNA dC->dU-editing enzyme APOBEC-3G (Homo sapiens, UniProt Q9HC16); assay type: functional;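 further: Dose-response counterscreen measuring inhibition of APOBEC3G DNA deaminase activity, run while confirming APOBEC3A inhibitors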
Chain of DNA dC->dU-editing enzyme APOBEC-3G (Q9HC16 whole entry): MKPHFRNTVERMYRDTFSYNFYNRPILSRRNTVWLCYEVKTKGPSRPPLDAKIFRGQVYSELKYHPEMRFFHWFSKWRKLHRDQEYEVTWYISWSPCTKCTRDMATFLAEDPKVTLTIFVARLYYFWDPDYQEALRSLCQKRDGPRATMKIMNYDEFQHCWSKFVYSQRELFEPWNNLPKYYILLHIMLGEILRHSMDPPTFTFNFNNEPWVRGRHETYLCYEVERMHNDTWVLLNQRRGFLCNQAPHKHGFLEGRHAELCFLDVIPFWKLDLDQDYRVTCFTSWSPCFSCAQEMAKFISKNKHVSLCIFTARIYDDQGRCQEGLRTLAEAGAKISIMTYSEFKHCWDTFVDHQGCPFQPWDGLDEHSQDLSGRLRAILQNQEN

Ion channel NompC = Ion channel NompC (Danio rerio, UniProt Q7T1G6); assay: Fluorescence counterscreen assay for TRPML3 agonists: dose response cell-based high-throughput screening assay to identify agonists of the transient receptor potential channel N1 (TRPN1). [Related pubchem assays: 1526, 1424, 1448 ]; assay type: functional
Mucolipin-3 = target: T4, Mucolipin-3 (Homo sapiens, UniProt Q8TDD5); assay: Dose response cell-based high-throughput screening assay for agonists of the transient receptor potential channel ML3 (TRPML3). [Related pubchem assays: 1526, 1424, 1448 ]; assay type: functional
T4 sequence (Q8TDD5 whole entry): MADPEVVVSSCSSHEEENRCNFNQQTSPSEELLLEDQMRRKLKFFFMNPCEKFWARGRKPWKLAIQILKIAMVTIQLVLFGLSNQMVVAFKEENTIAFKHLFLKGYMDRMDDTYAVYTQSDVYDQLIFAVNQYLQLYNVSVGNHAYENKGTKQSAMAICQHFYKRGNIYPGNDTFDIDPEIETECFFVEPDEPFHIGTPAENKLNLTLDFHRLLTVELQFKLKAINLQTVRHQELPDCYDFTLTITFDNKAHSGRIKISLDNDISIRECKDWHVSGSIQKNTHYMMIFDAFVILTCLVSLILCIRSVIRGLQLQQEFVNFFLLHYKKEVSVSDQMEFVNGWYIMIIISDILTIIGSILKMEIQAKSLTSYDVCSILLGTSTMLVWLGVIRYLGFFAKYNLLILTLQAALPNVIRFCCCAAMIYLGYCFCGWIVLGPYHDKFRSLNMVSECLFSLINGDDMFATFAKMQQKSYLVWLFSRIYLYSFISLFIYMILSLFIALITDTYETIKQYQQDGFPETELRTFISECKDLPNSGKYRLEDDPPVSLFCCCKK

[6] = target: Eukaryotic translation initiation factor 4E (Mus musculus, UniProt P63073); assay: eIF4E–eIF4G protein interaction inhibitors, dose response, biochemical, TR-FRET (AID 855); assay type: functional;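 further: potency for disrupting eIF4E binding to eIF4GI seen as loss of FRET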
Chain of Eukaryotic translation initiation factor 4E (P63073 whole entry): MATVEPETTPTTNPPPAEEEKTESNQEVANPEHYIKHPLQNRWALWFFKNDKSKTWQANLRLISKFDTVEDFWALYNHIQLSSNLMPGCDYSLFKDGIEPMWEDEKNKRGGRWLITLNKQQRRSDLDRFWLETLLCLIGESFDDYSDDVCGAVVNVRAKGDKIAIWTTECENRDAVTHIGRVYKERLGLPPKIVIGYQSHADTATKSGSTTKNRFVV

[7] = A cytotoxicity screen of small molecule inhibitors of the PhoP region in Salmonella typhi identified in the primary screen. [Related pubchem assays: 1850, 1864, 1985 ]; assay type: functional
[8] = inhibitors of intracellular T. cruzi replication, confirmation, NIH3T3 host cells, beta-gal luminescence (AID 2044); assay type: functional, cell-based;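 further: intracellular parasites grown in NIH/3T3 mouse fibroblasts as host cells; luminescent beta-galactosidase reporter signal from transgenic T. cruzi replicating inside host cells; inhibitors lower the luminescence signal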
[9] = target: T5, Heat shock factor protein 1 (Mus musculus, UniProt P38532); assay: inhibition of MG132-induced HSE-luciferase signal, confirmation, cell-based, NIH3T3, luminescence, dose retest (AID 2382); assay type: functional;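 further: NIH3T3 fibroblasts with HSF1-driven luciferase reporter stressed by proteasome inhibitor MG132; luminescence from HSF1-driven luciferase expression after 8 hours of MG132 stress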
T5 sequence (P38532 whole entry): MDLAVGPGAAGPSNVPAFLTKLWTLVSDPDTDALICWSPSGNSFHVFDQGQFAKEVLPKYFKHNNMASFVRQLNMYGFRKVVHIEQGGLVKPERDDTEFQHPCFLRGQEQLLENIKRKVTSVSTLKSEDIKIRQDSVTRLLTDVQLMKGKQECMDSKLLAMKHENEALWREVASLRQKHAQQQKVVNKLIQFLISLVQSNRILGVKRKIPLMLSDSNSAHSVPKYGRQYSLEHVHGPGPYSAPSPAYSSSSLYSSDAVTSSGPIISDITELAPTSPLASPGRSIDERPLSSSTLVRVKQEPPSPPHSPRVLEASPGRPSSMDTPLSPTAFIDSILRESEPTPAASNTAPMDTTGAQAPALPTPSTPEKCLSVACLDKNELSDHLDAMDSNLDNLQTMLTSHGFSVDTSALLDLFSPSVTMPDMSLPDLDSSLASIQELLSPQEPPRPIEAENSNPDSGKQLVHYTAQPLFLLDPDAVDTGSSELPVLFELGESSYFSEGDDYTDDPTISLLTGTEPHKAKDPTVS

Streptococcus = assay: Group A Streptococcus viability loss, dose response, counter-screen for streptokinase expression inhibitor project, luminescence, BacTiterGlo (AID 1915); assay type: functional, organism-based;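 further: potency for reduction of bacterial viability or growth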
[10] = cytotoxicity toward NIH3T3 fibroblasts, dose response, counter-screen, cell-based, ATP luminescence, mouse fibroblasts (AID 2010); assay type: functional;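 further: cells exposed to compound for about 90 hours before reading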
[11] = test system: Streptococcus sp. 'group A'; assay: growth inhibition of control SK(-) GAS strain, dose response, counter-screen for streptokinase expression inhibitor project, luminescence, kanamycin, BacTiterGlo, confirmation (AID 1900); assay type: functional, organism-based
CAAX prenyl protease 2 = target: T6, CAAX prenyl protease 2 (Saccharomyces cerevisiae S288c, UniProt Q03530); assay type: biochemical
T6 sequence (Q03530 whole entry): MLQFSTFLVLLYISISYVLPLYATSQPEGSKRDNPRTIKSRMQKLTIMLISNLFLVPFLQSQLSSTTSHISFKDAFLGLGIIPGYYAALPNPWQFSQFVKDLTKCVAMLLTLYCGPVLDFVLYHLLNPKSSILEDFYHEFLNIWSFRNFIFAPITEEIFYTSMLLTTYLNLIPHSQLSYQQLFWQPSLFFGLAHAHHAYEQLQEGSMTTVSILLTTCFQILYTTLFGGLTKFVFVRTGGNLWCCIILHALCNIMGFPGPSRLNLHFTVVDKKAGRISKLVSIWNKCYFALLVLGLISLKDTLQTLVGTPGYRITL

[12] = target: T7, Kappa-type opioid receptor (Homo sapiens, UniProt P41145); assay type: functional
T7 sequence (P41145 whole entry): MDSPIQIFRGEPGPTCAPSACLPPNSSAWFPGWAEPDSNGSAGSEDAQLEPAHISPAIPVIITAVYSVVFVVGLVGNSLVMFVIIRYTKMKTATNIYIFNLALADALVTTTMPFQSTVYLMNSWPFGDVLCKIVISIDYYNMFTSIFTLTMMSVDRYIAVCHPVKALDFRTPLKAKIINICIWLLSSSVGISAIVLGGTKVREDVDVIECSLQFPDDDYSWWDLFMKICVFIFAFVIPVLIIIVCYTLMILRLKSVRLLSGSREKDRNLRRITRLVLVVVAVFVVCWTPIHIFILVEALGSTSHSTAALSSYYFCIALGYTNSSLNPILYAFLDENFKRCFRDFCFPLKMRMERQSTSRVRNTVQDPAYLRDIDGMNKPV

Mu-type opioid receptor = Mu-type opioid receptor (Homo sapiens, UniProt P35372); assay: HTS Image-Based Screen for Agonists of the MOR Receptor. [Related pubchem assays (depositor defined):AID1777, AID1785, AID1786, AID2133]; assay type: functional;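 further: imaging of beta-arrestin GFP recruitment into spots after receptor activation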
[13] = target: Voltage-dependent T-type calcium channel subunit alpha-1H (Homo sapiens, UniProt O95180); assay type: functional;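 further: channel activity triggered by adding a high calcium stimulation buffer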
[14] = target: T8, Delta-type opioid receptor (Homo sapiens, UniProt P41143); assay: HTS Image-Based Screen for Antagonists of the DOR Receptor. [Related pubchem assays (depositor defined):AID1777, AID1785, AID1786, AID2133]; assay type: functional
[15] = target: T8, Delta-type opioid receptor; assay: HTS Image-Based Screen for Agonists of the DOR Receptor. [Related pubchem assays (depositor defined):AID1777, AID1786, AID2133]; assay type: functional
[16] = target: T7, Kappa-type opioid receptor; assay type: functional; remark: listed apart in the source
Beta-galactosidase = Beta-galactosidase (Escherichia coli, UniProt Q8VNN2); assay type: functional
[17] = target: T9, Alkaline phosphatase, tissue-nonspecific isozyme (Homo sapiens, UniProt P05186); assay: human TNAP enzyme inhibitors, SAR follow-up, biochemical, luminescent, dose response (AID 1056)
T9 sequence (P05186 whole entry): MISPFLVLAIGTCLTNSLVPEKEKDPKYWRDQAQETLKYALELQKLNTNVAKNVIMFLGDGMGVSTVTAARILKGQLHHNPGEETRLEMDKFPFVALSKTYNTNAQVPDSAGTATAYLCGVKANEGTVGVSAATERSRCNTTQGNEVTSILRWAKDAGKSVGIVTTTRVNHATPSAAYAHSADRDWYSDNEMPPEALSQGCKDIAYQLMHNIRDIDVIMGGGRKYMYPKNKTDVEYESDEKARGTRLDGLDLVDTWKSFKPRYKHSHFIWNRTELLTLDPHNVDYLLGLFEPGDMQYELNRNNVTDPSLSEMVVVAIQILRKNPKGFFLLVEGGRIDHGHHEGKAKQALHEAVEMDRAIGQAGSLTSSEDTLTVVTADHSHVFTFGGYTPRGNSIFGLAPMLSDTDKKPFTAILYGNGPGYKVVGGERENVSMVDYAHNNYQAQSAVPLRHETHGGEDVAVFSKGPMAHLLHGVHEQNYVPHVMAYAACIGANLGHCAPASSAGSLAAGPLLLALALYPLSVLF

[18] = target: Alkaline phosphatase, placental type (Homo sapiens, UniProt P05187); assay: PLAP enzyme inhibitors, confirmation, biochemical, luminescence (AID 1512); assay type: functional
Chain of Alkaline phosphatase, placental type (P05187 whole entry): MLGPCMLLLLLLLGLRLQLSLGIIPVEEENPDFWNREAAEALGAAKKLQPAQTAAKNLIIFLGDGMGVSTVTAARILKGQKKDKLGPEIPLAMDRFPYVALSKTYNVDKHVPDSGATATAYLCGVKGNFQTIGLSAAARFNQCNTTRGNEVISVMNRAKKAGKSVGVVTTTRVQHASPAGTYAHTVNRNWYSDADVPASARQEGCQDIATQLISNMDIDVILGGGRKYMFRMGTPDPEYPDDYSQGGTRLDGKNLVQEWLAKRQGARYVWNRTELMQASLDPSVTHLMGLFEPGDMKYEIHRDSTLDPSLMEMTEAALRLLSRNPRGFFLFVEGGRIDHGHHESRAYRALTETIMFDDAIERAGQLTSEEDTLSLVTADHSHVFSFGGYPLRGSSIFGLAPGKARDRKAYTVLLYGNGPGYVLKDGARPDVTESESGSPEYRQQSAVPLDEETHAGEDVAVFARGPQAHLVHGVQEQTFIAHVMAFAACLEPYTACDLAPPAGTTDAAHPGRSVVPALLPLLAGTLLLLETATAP

SMILES: O=C(NC(Cc1c[nH]c2ccccc12)C(=O)Nc1ccc(F)cc1)c1cccs1 (centres undefined)
- CC50 [1]: 15.6 µM (active)
- IC50 (Vero): 8.41 µM (active)
- IC50 (cells): 12.8 µM (active)

SMILES: Cc1cccc(N2CSC3=C(C#N)C(c4ccc(C)o4)CC(=O)N3C2)c1 (centres undefined)
- IC50 [2]: 22.3 µM (active)
- IC50 (Estrogen receptor): 3.55 µM (active)
- IC50 (Genome polyprotein): > 49.8 µM (not active)
- IC50 (Large T antigen): 11.4 µM (active)
- IC50 [3]: 6.47 µM (active)

SMILES: COc1ccc(CCCC(=O)NC2CCCCC2C)c(C)c1 (centres undefined)
- IC50 [4]: 3.49 µM (active)
- IC50 [5]: 2.99 µM (active)

SMILES: Cc1ccccc1N1CCN(S(=O)(=O)c2ccccc2)CC1
- EC50 (Ion channel NompC): > 29.9 µM (not active)
- EC50 (Mucolipin-3): 5.11 µM (active)

SMILES: Cc1cccnc1NC(=O)CN1C(=O)COc2ccc(Cl)cc21
- IC50 [4]: 1.91 µM (active)
- IC50 [5]: 1.65 µM (active)

SMILES: CCn1c(C)c(C(C)=O)c(N2CCN(C(=O)c3ccco3)CC2)nc1=S
- IC50 [6]: > 64 µM (inactive)

SMILES: Cc1cc(C)c(C2=NOC3C4CCC(C4)C23)c(C)c1 (centres undefined)
- EC50 (Ion channel NompC): > 29.9 µM (not active)
- EC50 (Mucolipin-3): 1.77 µM (active)

SMILES: Cc1cc(C)nc(NC(=S)Nc2cccc(Cl)c2Cl)c1
- IC50 [2]: > 50 µM (inactive)
- IC50 [3]: 1.27 µM (active)

SMILES: CC(C)(C)c1ccc(C(=O)NNC(=O)Cc2ccccc2)cc1
- EC50 [7]: > 50 µM (active)

SMILES: CCOc1ccccc1OCc1nn2c(COc3ccccc3)nnc2s1
- IC50 [6]: > 64 µM (inactive)

SMILES: CCc1cccc2c(C(=O)COC(=O)c3ccc([N+](=O)[O-])s3)c[nH]c12
- EC50 [8]: 0.739 µM (active)
- EC50 [9]: 7.75 µM (active)
- EC50 [7]: > 50 µM (active)
- EC50 (Streptococcus): 1.03 µM (active)
- EC50 [10]: > 30 µM (not active)
- EC50 [11]: 0.497 µM (active)

SMILES: Cc1cc(=O)n2ccccc2c1C#N
- AC50 (CAAX prenyl protease 2): 24.9 µM (active)

SMILES: Cn1c2ccccc2c(=O)c2c(=O)n(Cc3ccco3)c(COc3ccccc3)nc21
- EC50 [8]: 0.123 µM (active)
- CC50 [1]: 32.8 µM (active)
- EC50 [10]: > 60 µM (not active)
- IC50 (cells): 21.2 µM (active)

SMILES: O=C(Nc1nnc(-c2cccs2)o1)c1cccc(Oc2ccccc2)c1
- IC50 [12]: 9.8 µM (active)
- EC50 (Mu-type opioid receptor): > 32 µM (inactive)
- EC50 [13]: 3.02 µM (active)
- IC50 [14]: > 32 µM (inactive)
- EC50 [15]: > 32 µM (inactive)
- IC50 [16]: > 32 µM
- EC50 (Beta-galactosidase): > 31.5 µM (inactive)

SMILES: O=C(O)c1cc(-c2ccc(/C=C3/SC(=S)N(Cc4ccccc4)C3=O)o2)ccc1Cl
- IC50 [6]: 15.1 µM (active)

SMILES: Cc1cc(C(=O)NCc2ccc(O)c(O)c2)c(C)o1
- IC50 [17]: 12.5 µM (active)
- IC50 [18]: > 100 µM (inactive)

SMILES: O=C(CNC1CCCCC1)c1ccc(O)c(O)c1
- IC50 [17]: > 100 µM (inactive)
- IC50 [18]: 18.8 µM (active)
